Experimental data published in patent US10604487B2, “Pyridinol derivative or pharmaceutically acceptable salt thereof, and pharmaceutical composition containing same as active ingredient” (Research Cooperation Foundation of Yeungnam University, priority 2016, dated 2020).

How the values were obtained:
[1] = Cytotoxicity test (MTT), HT-29; assay type: cell-based; conditions: human, HT-29, 48 h; for viability at 48 h, 0.01 µM / viability at 48 h, 0.1 µM / viability at 48 h, 1 µM / viability at 48 h, 10 µM / viability at 48 h, 100 µM: HT-29 cells (colorectal cancer cell line), read-out: Cell viability (% of control); for IC50 at 48 h: HT-29 cells, read-out: IC50 (μM), cytotoxicity
Description: (§1) The human colorectal cancer cell line HT-29 and the monocytic blood cancer-derived cell line U937 were cultured in a RPMI 1640 medium containing 10% FBS and 1% penicillin/streptomycin (PS) at 37° C. under a condition of 5% CO2, and when the cells used herein were grown to 80% or more, they were subcultured at a ratio of 1:3.
(§2) Each type of cells were cultured in a 96 well plate at a concentration of 1×10^5 cells/cm2, treated with a test compound by concentration in a medium only containing 1% FBS and 1% PS at 37° C. under a condition of 5% CO2 for 48 hours and reacted with 5 mg/mL of a 3-[4,5-dimethylthiazol-2-yl]-2,5-diphenyltetrazolium bromide (MTT) reagent for 4 hours, and then the medium was completely removed, the cells were treated with DMSO, formazan crystals were dissolved for 30 minutes, and then absorbance was measured at 540 nm.

[2] = Cytotoxicity test (MTT), U937; assay type: cell-based; conditions: human, U937, 48 h; for viability at 48 h, 0.01 µM / viability at 48 h, 0.1 µM / viability at 48 h, 1 µM / viability at 48 h, 10 µM / viability at 48 h, 100 µM: U937 cells (monocytic blood cancer-derived cell line), read-out: Cell viability (% of control); for IC50 at 48 h: U937 cells
Description: as §1, §2

[3] = system: TNF-α-induced adhesion of monocytes to intestinal epithelial cells; assay: Inhibitory activity against TNF-α-induced adhesion of monocytes (U937) to intestinal epithelial cells (HT-29); assay type: cell-based, human; conditions: Homo sapiens, 1 μM test drug; HT-29/U937 adhesion, 10 ng/mL TNF-α; read-out: Inhibitory activity (%)
Description: HT-29 human colorectal cancer-derived epithelial cells and U937 human-derived monocytic cells were cultured in an RPMI 1640 medium containing 10% FBS and 1% penicillin/streptomycin (PS) at 37° C. under a condition of 5% CO2, and when the cells were grown to 80% or more in a culture flask, they were subcultured in a ratio of 1:3 to be used in this test. The HT-29 cells were cultured in a 24-well plate at a concentration of 2×10^5 cells/cm2, and then the medium only containing 1% FBS and 1% PS was pretreated with a test drug for 1 hour. Afterward, BCECF-loaded U937 cells by being treated with 10 μg/mL of BCECF-AM at 37° C. for 30 minutes and 10 ng/mL of TNF-α reacted with the HT-29 cells previously treated with the test drug at 37° C. for 3 hours. After the reaction, the medium was removed, and then the cells were washed with PBS twice to remove U937 cells that were not adhered. In a subsequent step, for cell lysis, 0.1% Triton X-100 (0.1 M Tris) was treated to allow a reaction at room temperature for 30 minutes, and then fluorescence was measured using a Fluostar optima microplate reader (BMG LABTECH, Germany) to quantify the cells (Carvalho et al., 1996; Thapa et al., 2008).

SMILES	viability at 48 h, 0.01 µM [1]	viability at 48 h, 0.1 µM [1]	viability at 48 h, 1 µM [1]	viability at 48 h, 10 µM [1]	viability at 48 h, 100 µM [1]	IC50 at 48 h [1]	viability at 48 h, 0.01 µM [2]	viability at 48 h, 0.1 µM [2]	viability at 48 h, 1 µM [2]	viability at 48 h, 10 µM [2]	viability at 48 h, 100 µM [2]	IC50 at 48 h [2]	inhibition at 1 µM [3]
COC(=O)Nc1nc(C)c(O)c(C)c1C [Compound 20-1, methyl (5-hydroxy-3,4,6-trimethylpyridin-2-yl)carbamate]	89.7 ± 6.3%	84.9 ± 1.9%	85 ± 3.4%	82.6 ± 1.3%	73.7 ± 4.5%	> 100 µM	97.5 ± 1.6%	95.1 ± 5.3%	93.7 ± 1.2%	80.9 ± 12.8%	89.6 ± 1%	> 100 µM	9.8%
Cc1nc(NC(=O)OCCCl)c(C)c(C)c1O [Compound 20-4, 2-Chloroethyl (5-hydroxy-3,4,6-trimethylpyridin-2-yl)carbamate]	97.4 ± 2.2%	94.7 ± 3.3%	88.6 ± 2.2%	90.2 ± 5.3%	86.7 ± 3.1%	> 100 µM	86.1 ± 3.1%	82.7 ± 1%	83.4 ± 1.3%	83 ± 0.5%	79.2 ± 1.3%	> 100 µM	-1.5%
Cc1nc(NC(=O)Nc2ccc(Cl)cc2)c(C)c(C)c1O [Compound 16-3, 1-(4-Chlorophenyl)-3-(5-hydroxy-3,4,6-trimethylpyridin-2-yl)urea]	104 ± 6.1%	102 ± 6.4%	103 ± 11.1%	89.3 ± 4.8%	69.2 ± 6.1%	> 100 µM	89.4 ± 2.7%	89.7 ± 3.1%	81 ± 3.1%	81 ± 2.2%	66 ± 0.1%	> 100 µM	7.7%
Cc1cccc(C(C)(C)C)c1NC(=O)Nc1nc(C)c(O)c(C)c1C [Compound 16-4, 1-(2-tert-butyl-6-methylphenyl)-3-(5-hydroxy-3,4,6-trimethylpyridin-2-yl)urea]	76.6 ± 6.9%	76.8 ± 5%	74.7 ± 6%	62.1 ± 2.9%	43.6 ± 1.8%	34.7 µM	95 ± 2.9%	91.2 ± 1.9%	91.3 ± 1.2%	85.4 ± 0.2%	75.5 ± 1.7%	> 100 µM	34.3%
COCCOC(=O)Nc1nc(C)c(O)c(C)c1C [Compound 20-5, 2-methoxyethyl (5-hydroxy-3,4,6-trimethylpyridin-2-yl)carbamate]	89.7 ± 1.2%	83.2 ± 2.6%	84.7 ± 1.6%	85.5 ± 3.3%	82.3 ± 1.1%	> 100 µM	85.4 ± 4.4%	84.2 ± 4.1%	81.2 ± 0.7%	79.9 ± 0.8%	77.9 ± 0.8%	> 100 µM	-22.5%
